The text below walks through data of patent publication US12630498B2 (Genzyme Corporation, priority 2019, dated 2026).

pEC50: −log10 of the molar value.

The target of assay [1] is T1, human Cystic Fibrosis Transmembrane Conductance Regulator (CFTR) harboring the ΔF508 mutation (Homo sapiens, UniProt P13569, DEL508-508).
T1 construct: expressed in transfected cells; host or cells: H441 carcinoma line (G418-selected)
As to the kind of experiment: H441 cell ΔF508-CFTR-HRP cell surface assay (Emax and EC50). The format is cell-based. As to conditions: for Emax: NCI-H441, NA = Not active. The method, boiled down:
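H441 and 41o- bronchial epithelial cells expressing ΔF508-CFTR with an extracellular-loop-4 HRP tag were treated with a 15-point compound series (24.5–0.001 μM) for two nights, H441 at 27° C, 41o- at 37° C with 0.0005 mg/ml doxycycline. Surface HRP luminescence read; % of maximum VX809 signal and EC50 derived.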

The target in assay [2] is T2, CFTR-mediated transepithelial chloride transport in primary human bronchial epithelial cells from a ΔF508 homozygous CF donor (Homo sapiens, UniProt P13569, DEL508-508).
T2 construct: Primary human bronchial epithelial cells from a ΔF508 homozygous CF donor; host or cells: primary CF-HBE cells, ΔF508 homozygous donor
T2 sequence (P13569 with tags, fused parts or gaps DEL508-508): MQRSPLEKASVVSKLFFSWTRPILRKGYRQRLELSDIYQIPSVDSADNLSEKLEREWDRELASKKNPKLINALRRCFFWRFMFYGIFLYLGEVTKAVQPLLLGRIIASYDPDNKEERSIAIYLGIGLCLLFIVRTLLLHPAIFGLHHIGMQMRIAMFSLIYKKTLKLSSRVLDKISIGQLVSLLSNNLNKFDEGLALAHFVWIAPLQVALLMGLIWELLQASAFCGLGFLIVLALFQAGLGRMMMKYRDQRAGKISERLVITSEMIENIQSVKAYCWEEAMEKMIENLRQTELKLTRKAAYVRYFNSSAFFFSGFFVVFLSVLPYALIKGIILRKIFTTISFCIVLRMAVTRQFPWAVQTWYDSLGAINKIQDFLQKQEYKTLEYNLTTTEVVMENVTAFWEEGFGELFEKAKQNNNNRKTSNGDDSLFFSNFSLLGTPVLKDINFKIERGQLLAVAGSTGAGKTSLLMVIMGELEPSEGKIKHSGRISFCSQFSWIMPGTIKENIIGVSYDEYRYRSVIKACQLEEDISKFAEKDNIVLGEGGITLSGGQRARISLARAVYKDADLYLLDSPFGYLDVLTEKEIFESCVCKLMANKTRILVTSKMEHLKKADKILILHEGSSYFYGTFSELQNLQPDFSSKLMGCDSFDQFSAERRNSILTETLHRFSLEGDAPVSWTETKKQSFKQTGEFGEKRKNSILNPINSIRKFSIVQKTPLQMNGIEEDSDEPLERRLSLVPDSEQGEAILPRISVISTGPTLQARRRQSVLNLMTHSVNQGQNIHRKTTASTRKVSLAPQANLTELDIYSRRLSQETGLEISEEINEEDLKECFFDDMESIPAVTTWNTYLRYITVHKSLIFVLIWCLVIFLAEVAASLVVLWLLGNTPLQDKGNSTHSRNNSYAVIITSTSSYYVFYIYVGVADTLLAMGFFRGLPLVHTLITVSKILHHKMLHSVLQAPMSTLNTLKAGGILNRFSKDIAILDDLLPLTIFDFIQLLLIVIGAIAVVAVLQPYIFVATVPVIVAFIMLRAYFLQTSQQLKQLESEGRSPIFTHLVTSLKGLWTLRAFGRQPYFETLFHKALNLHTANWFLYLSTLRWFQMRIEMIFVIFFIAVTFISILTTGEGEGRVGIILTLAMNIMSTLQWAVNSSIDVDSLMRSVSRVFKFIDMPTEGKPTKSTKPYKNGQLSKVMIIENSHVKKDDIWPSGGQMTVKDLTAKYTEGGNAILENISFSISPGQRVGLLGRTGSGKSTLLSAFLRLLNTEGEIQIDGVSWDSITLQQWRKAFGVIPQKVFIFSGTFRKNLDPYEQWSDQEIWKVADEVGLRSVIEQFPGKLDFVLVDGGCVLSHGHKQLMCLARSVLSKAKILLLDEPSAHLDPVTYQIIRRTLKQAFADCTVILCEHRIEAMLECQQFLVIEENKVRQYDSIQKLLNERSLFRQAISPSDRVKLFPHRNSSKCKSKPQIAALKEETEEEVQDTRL
The experiment in a line: TECC24 recording of CFTR-mediated transepithelial chloride transport in CF-HBE cells (AUC fold over DMSO). The conditions noted are these: test agent 10 μM, 48 hours incubation, AUC of forskolin-stimulated IEQ relative to DMSO. Type of assay: cell-based. An outline of the steps: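 Equivalent Cl⁻ current was derived from transepithelial voltage and resistance, and its AUC from forskolin (10 μM) to CFTRinh-172 (20 μM) was divided by the DMSO AUC. Benzamil 10 μM blocked ENaC. Cells were ΔF508-homozygous primary bronchial epithelia pretreated 48 h at 36.5 °C in IL-13 medium.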

T1 sequence (P13569 with tags, fused parts or gaps DEL508-508): as above

By pEC50 is commonly meant −log10 of the EC50, conventionally taken in molar units. A high value points to a small EC50. The Emax is the size of the effect at its maximum, as opposed to the concentration needed. In assay [1], `C[C@H](OC(C)(C)C)C(NC(=O)c1ccc2ccccc2c1OCc1ccc(C(F)(F)F)cc1)C(=O)O` (stereo partly drawn) [Example 134, (3S)-3-(tert-butoxy)-2-(1-((4-(trifluoromethyl)benzyl)oxy)-2-naphthamido)butanoic Acid] gave a negative-log EC50 (pEC50) of 6.00 and a maximal effect (Emax) of 84.9%. For the same molecule, the “TECC24 AUC fold over DMSO @10 μM” value in assay [2] is given as “C (“C” refers to AUC @10 uM <4)”.

In assay [1], `O=C(N[C@@H](Cc1ccco1)C(=O)O)c1ccc2ccccc2c1OCc1ccc(C(F)(F)F)cc1` [Example 136, (S)-3-(furan-2-yl)-2-(1-((4-(trifluoromethyl)benzyl)oxy)-2-naphthamido)propanoic Acid] had a negative logarithm of the EC50 (pEC50) of 5.09 and a maximal response (Emax) of 73.6%. Besides, the “TECC24 AUC fold over DMSO @10 μM” value in assay [2] is recorded as “C (“C” refers to AUC @10 uM <4)”.

For the molecule `COC(C)(C)[C@H](NC(=O)c1ccc2ccccc2c1OCc1ccc(C(F)(F)F)cc1)C(=O)O` [Example 139, (S)-3-methoxy-3-methyl-2-(1-((4-(trifluoromethyl)benzyl)oxy)-2-naphthamido)butanoic Acid], in assay [1], the negative logarithm of the EC50 (pEC50) is 5.85 and the Emax was found to be 118%. For the same molecule, the “TECC24 AUC fold over DMSO @10 μM” value in assay [2] was “C (“C” refers to AUC @10 uM <4)”.

In assay [1], `O=C(N[C@H](C(=O)O)c1ccccc1)c1ccc2ccccc2c1OCc1ccc(C(F)(F)F)cc1` [Example 140, (S)-2-phenyl-2-(1-((4-(trifluoromethyl)benzyl)oxy)-2-naphthamido)acetic Acid] had a pEC50 of 5.24 and an Emax of 82.9%. Moreover, the “TECC24 AUC fold over DMSO @10 μM” value in assay [2] is “C (“C” refers to AUC @10 uM <4)”.

In assay [1], `CC(C)(C)C[C@H](NC(=O)c1ccc2ccccc2c1OCc1ccc(C(F)(F)F)cc1)C(=O)O` [Example 141, (S)-4,4-dimethyl-2-(1-((4-(trifluoromethyl)benzyl)oxy)-2-naphthamido)pentanoic Acid] showed a pEC50 of 5.64 and an Emax of 147%. In assay [2], the “TECC24 AUC fold over DMSO @10 μM” value was “A (“A” refers to AUC @10 uM >6)”.

In assay [1], `O=C(N[C@H](C(=O)O)c1cccc2ccccc12)c1ccc2ccccc2c1OCc1ccc(C(F)(F)F)cc1` [Example 142, (S)-2-(naphthalen-1-yl)-2-(1-((4-(trifluoromethyl)benzyl)oxy)-2-naphthamido)acetic Acid] gave a pEC50 of 5.66 and a maximal response (Emax) of 86.9%. Also, the “TECC24 AUC fold over DMSO @10 μM” value in assay [2] is “C (“C” refers to AUC @10 uM <4)”.

Regarding `O=C(N[C@H](C(=O)O)C1Cc2ccccc2C1)c1ccc2ccccc2c1OCc1ccc(C(F)(F)F)cc1` [Example 143, (S)-2-(2,3-dihydro-1H-inden-2-yl)-2-(1-((4-(trifluoromethyl)benzyl)oxy)-2-naphthamido)acetic Acid], in assay [1], the pEC50 is 5.72 and the Emax came out at 135%. For the same molecule, in assay [2], the “TECC24 AUC fold over DMSO @10 μM” value is “B (“B” refers to AUC @10 uM between 4-6)”.

Consider `C[C@@H](OCc1ccccc1)C(NC(=O)c1ccc2ccccc2c1OCC1CCCCC1)C(=O)O` (stereo partly drawn) [Example 150, (3R)-3-(benzyloxy)-2-(1-(cyclohexylmethoxy)-2-naphthamido)butanoic Acid], for which, in assay [1], the pEC50 was 4.96 and the maximal effect (Emax) worked out at 82.5%. The “TECC24 AUC fold over DMSO @10 μM” value in assay [2] is reported as “C (“C” refers to AUC @10 uM <4)”.

Consider `O=C(N[C@@H](Cc1c(Cl)cccc1Cl)C(=O)O)c1ccc2ccccc2c1OCc1ccc(C(F)(F)F)cc1` [Example 152, (S)-3-(2,6-dichlorophenyl)-2-(1-((4-(trifluoromethyl)benzyl)oxy)-2-naphthamido)propanoic Acid], for which, in assay [1], the pEC50 was 5.14 and the maximal response (Emax) was 122%. Also, in assay [2], the “TECC24 AUC fold over DMSO @10 μM” value is “C (“C” refers to AUC @10 uM <4)”.

In assay [1], `O=C(N[C@H](C(=O)O)C1CCCC1)c1ccc2cc(F)ccc2c1OCc1ccc(C(F)(F)F)cc1` [Example 153, (S)-2-cyclopentyl-2-(6-fluoro-1-((4-(trifluoromethyl)benzyl)oxy)-2-naphthamido)acetic Acid] showed a pEC50 of 5.82 and a maximal effect (Emax) of 73.5%. Also, the “TECC24 AUC fold over DMSO @10 μM” value in assay [2] is recorded as “B (“B” refers to AUC @10 uM between 4-6)”.
